Values joined by “and” are separate entries in the source; they are usually repeats but may differ in a detail not shown here. Equal entries are not always repeated. Where two headings read alike, the source gives them in different places.
What was measured:
[1] = tested on: murine peritoneal macrophages; tumor targets Daudi and CEM-CM3; assay: "In vitro-ex vivo" effect on the cytotoxic activity of peritoneal macrophages (lysis of 3H-TdR labelled tumor cells); set-up: species or system mouse (B6 D2 F1, C57B16); tumor targets human
Protocol: Assessment of the "in vitro-ex vivo" effect of ST 557, ST 563, ST 570 and ST 626 on the cytotoxic activity of peritoneal macrophages (M)
Male hybrid B6 D2 F1 aged 7-9 weeks and male inbred mice C57B16 aged 8 weeks were used (4 animals/group).
All the compounds were administered i.p. (25 mg/kg/day). ST 557 was also administered per os (100 mg/kg/day) from day -5 to day -1 (peritoneal exudate cell [PEC] harvesting at day 0).
PEC were obtained from sacrificed animals, 24 hours following the end of treatment, via repeated washings of the abdominal cavity. The peritoneal exudates obtained from each group of animals were pooled.
The macrophage percentage was assessed by counting in a Burker chamber; cell suspensions (concentration=2×10^6 M/ml) were prepared.
The macrophage cytotoxic activity was assessed using the following two tumor cell lines as targets: Daudi, derived from a human lymphoblastoma and CEM-CM3, derived from human lymphoblastic leukemia (both lines are disclosed in ATCC--American Type Culture Collection--Cell lines of hybridoma, 5th Ed.--1985).
The experimental procedure is substantially the same as that described by Herscowitz, H. B. (1981)--Manual of Macrophage Methodology. Dekker M, Editor.
In particular, samples of cell lines were labelled with ^3 H-TdR (tritiated thymidine) and their concentration was adjusted to 5×10^4 cells/ml. They were then added to the macrophage preparations (using 96-well microtiter plates) and the volumes were adjusted so as to obtain Effector (macrophage)/Target (tumor cell) ratios of 20:1; 40:1 and 80:1 in an overall volume of 0.3 ml/well.
Three replicates for each sample were prepared; after 48 and 72 hours of incubation at 37° C. in 5% CO2. Aliquots of 0.1 ml of supernatant were drawn out from each well and counted in a β-counter.
The macrophage cytotoxic activity results in a tumor cell lysis that causes the release of the radioactivity incorporated by the cells into the supernatant.
Based on the βeta-counter data (in cpm) this activity is expressed as the percentage of radioactivity released following lysis with respect to the radioactivity incorporated by the tumor cells.
The relevant formulas are as follows: [formula]
The measures carried out on the samples account for a certain degree of lysis occurring spontaneously in cultured tumor cells not exposed to macrophages. Total radioactivity incorporated by the tumor cells is calculated by conducting a lysis with 1% SDS in distilled water.

[2] = tested on: peritoneal macrophages of treated mice; target tumor cells; assay: "In vitro-ex vivo" effect on the cytostatic activity of peritoneal macrophages; set-up: species or system mouse (B6 D2 F1); tumor targets human
Protocol: Assessment of the "in vitro-ex vivo" effect of ST 557, ST 563 and ST 570 on the cytostatic activity of peritoneal macrophages
Male B6 D2 F1 mice aged 7-9 weeks (5 animals per group) were used.
The compounds were administered i.p. (25 mg/kg/day), ST 557 and ST 563 were also administered per os (100 mg/kg/day) from day -5 to day -1 (peritoneal cell harvesting at day 0).
The macrophages and target tumor cell lines were prepared as in test 1 and their concentrations were adjusted to 1×10^6 M/ml and 5×10^4 cell/ml, respectively.
Volumes of tumor cells were added to the macrophage preparations so as to obtain Effector/Target ratios of 10:1, 20:1 and 40:1.
Each sample was pulsed with ^3 H-TdR for 18 hours in order to label the tumor cells, which were then collected on filters and counted in a beta-counter.
The macrophage cytostatic activity is expressed as percentage inhibition of tumor cell replication, by assessing the radioactivity incorporated by the tumor cells in each sample with respect to the maximum radioactivity incorporated by a sample consisting of tumor cells only. [formula]

splenocytes = assay: "In vitro-ex vivo" effect on the mytogen (PHA, LPS)-induced splenocyte proliferation in mice; set-up: species or system mouse (B6 D2 F1); conditions: 25 mg/kg/day i.p.
Protocol: Assessment of the "in vitro-ex vivo" effect of ST 557, ST 563, ST 608 on the mytogen (PHA, LPS)-induced splenocyte proliferation in mice
Male B6 D2 F1 mice aged 6-10 weeks (4 animals per group) were used.
The compounds were administered i.p. 25 mg/kg/day, from day -5 to -1 (spleen excision at day 0).
PHA (active on T lymphocytes) and LPS (active on B lymphocytes) were used as mytogens. Each mytogen was tested at three different concentrations (suboptimal, optimal, superoptimal): 0.5, 4 and 6 mcg/ml/well and 0.5, 150 and 500 mcg/ml/well, respectively.
The experimental procedure was conducted substantially as described by Kirchner et al., "Splenic suppressor macrophages induced in mice by injection of C. parvum", J. Immunol., 1975, 115: 1212.
In particular, the cell suspensions obtained from the spleens of the animals of the same group were pooled and the cell concentration was adjusted to 5×10^6 cells/ml.
To volumes of 0.1 ml of each sample, equal volumes of the mytogen preparations were added so as to obtain, for each mytogen, the previously indicated final concentrations.
Each sample was prepared in triplicate in U-bottom microtiters. A control, to which 0.1 ml of medium were added instead of the mytogen, was also prepared. The control permits the extent of spontaneous proliferation in the absence of stimulation to be assessed.
The samples were incubated at 37° C. for 48 hours and then they were pulsed with 20 μl ^3 H-TdR (25 μCi/ml).
After 18 hours of further incubation, the cells were collected on filters and counted in a beta-counter.
The results of each sample are expressed by calculating the value of the area under the curve (AUC) obtained by plotting the values of the incorporated radioactivity (in cpm) versus the various concentrations of each mytogen.
In addition to AUC, the stimulation index (SI) is also considered, that is defined as follows. [formula]

[3] = Tolerability after oral or intravenous administration; set-up: species or system mouse (Swiss albino); conditions: mouse, in vivo, 7 days observation, read-out: Tolerability, dose
Protocol: The test was conducted in male Swiss albino mice weighing 22-24 g.
A group of animals (4 animals/dose) which had been kept fasting for 18 hours, were orally administered the compounds ST 557, ST 563, ST 564 and ST 570 dissolved in twice distilled water.
A further group of animals, which had free access to food and water, were administered intravenously the same compounds dissolved in saline it pH 7. All the animals were kept under observation for 7 days.

[4] = 48 hours, E/T 20:1, 25 mg/kg/day i.p., B6 D2 F1
[5] = 48 hours, E/T 20:1, 25 mg/kg/day i.p., repeated experiment, B6 D2 F1
[6] = 48 hours, E/T 40:1, 25 mg/kg/day i.p., B6 D2 F1
[7] = 48 hours, E/T 40:1, 25 mg/kg/day i.p., repeated experiment, B6 D2 F1
[8] = 48 hours, E/T 80:1, 25 mg/kg/day i.p., repeated experiment, B6 D2 F1
[9] = 72 hours, E/T 20:1, 25 mg/kg/day i.p., B6 D2 F1
[10] = 72 hours, E/T 20:1, 25 mg/kg/day i.p., repeated experiment, B6 D2 F1
[11] = 72 hours, E/T 40:1, 25 mg/kg/day i.p., B6 D2 F1
[12] = 72 hours, E/T 40:1, 25 mg/kg/day i.p., repeated experiment, B6 D2 F1
[13] = 72 hours, E/T 80:1, 25 mg/kg/day i.p., repeated experiment, B6 D2 F1

Compound: COc1cc2c(cc1OC)CC(N(CC1CC1)CC1CC1)CC2 (stereo not shown) [ST 557, 2-[(N,N-dicyclopropylmethyl)amino]-6,7-dimethoxytetraline]
- % lysis of tumor target [1, 4]: 10.7 ± 0.2%
- % lysis of tumor target [1, 5]: 7.8 ± 0.7%
- % lysis of tumor target ([1]; 48 hours, E/T 20:1, 25 mg/kg/day i.p., repeated experiment, C57B16 mice): 10.8 ± 0.6%
- % lysis of tumor target ([1]; 48 hours, E/T 20:1, 100 mg/kg/day os, B6 D2 F1): 22.7 ± 0.6%
- % lysis of tumor target [1, 6]: 24.6 ± 0.8%
- % lysis of tumor target [1, 7]: 13.2 ± 0.7%
- % lysis of tumor target ([1]; 48 hours, E/T 40:1, 25 mg/kg/day i.p., repeated experiment, C57B16 mice): 16.4 ± 0.8%
- % lysis of tumor target ([1]; 48 hours, E/T 40:1, 100 mg/kg/day os, B6 D2 F1): 30.1 ± 0.7%
- % lysis of tumor target [1, 8]: 32.4 ± 0.9%
- % lysis of tumor target ([1]; 48 hours, E/T 80:1, 25 mg/kg/day i.p., repeated experiment, C57B16 mice): 28.3 ± 0.5%
- % lysis of tumor target ([1]; 48 hours, E/T 80:1, 100 mg/kg/day os, B6 D2 F1): 29.7 ± 0.9%
- % lysis of tumor target [1, 9]: 13.1 ± 0.3%
- % lysis of tumor target [1, 10]: 13.0 ± 0.7%
- % lysis of tumor target ([1]; 72 hours, E/T 20:1, 25 mg/kg/day i.p., repeated experiment, C57B16 mice): 11.9 ± 0.7%
- % lysis of tumor target ([1]; 72 hours, E/T 20:1, 100 mg/kg/day os, B6 D2 F1): 29.7 ± 1.2%
- % lysis of tumor target [1, 11]: 29.3 ± 0.9%
- % lysis of tumor target [1, 12]: 18.7 ± 0.9%
- % lysis of tumor target ([1]; 72 hours, E/T 40:1, 25 mg/kg/day i.p., repeated experiment, C57B16 mice): 11.9 ± 0.4%
- % lysis of tumor target ([1]; 72 hours, E/T 40:1, 100 mg/kg/day os, B6 D2 F1): 41.5 ± 1.3%
- % lysis of tumor target [1, 13]: 45.3 ± 0.9%
- % lysis of tumor target ([1]; 72 hours, E/T 80:1, 25 mg/kg/day i.p., repeated experiment, C57B16 mice): 30.9 ± 0.1%
- % lysis of tumor target ([1]; 72 hours, E/T 80:1, 100 mg/kg/day os, B6 D2 F1): 44.4 ± 0.3%
- % of inhibition of target tumor growth ([2]; E/T 10:1, 100 mg/kg/day os): 24.3 ± 2.2%
- % of inhibition of target tumor growth ([2]; E/T 20:1, 25 mg/kg/day i.p.): 45.1 ± 1.1%
- % of inhibition of target tumor growth ([2]; E/T 20:1, 100 mg/kg/day os): 38.7 ± 1.6%
- % of inhibition of target tumor growth ([2]; E/T 40:1, 25 mg/kg/day i.p.): 68.9 ± 1.4%
- % of inhibition of target tumor growth ([2]; E/T 40:1, 100 mg/kg/day os): 62.8 ± 3.1%
- AUC (area under curve, incorporated radioactivity vs mytogen concentration) (splenocytes; LPS): 10312 ± 1253 ×10^-3 and 18914 ± 389 ×10^-3
- S.I. (stimulation index) (splenocytes; LPS): 1.22 and 1.15
- S.I. (stimulation index) (splenocytes; PHA): 1.27 and 1.13 and 1.73
- MTD at 168 h ([3]; iv): > 4 mg/kg
- MTD at 168 h ([3]; po, os, fasting 18 hours): > 20 mg/kg

Compound: COc1cc2c(cc1OC)CC(NCC(O)c1ccc(C)cc1)CC2 (stereo not shown) [ST 563, 2-[(N-2-hydroxy-2-(4-methylphenyl)ethyl)amino]-6,7-dimethoxytetraline]
- % lysis of tumor target [1, 4]: 9.1 ± 0.2%
- % lysis of tumor target [1, 5]: 7.7 ± 0.6%
- % lysis of tumor target [1, 6]: 15.4 ± 0.2%
- % lysis of tumor target [1, 7]: 9.4 ± 0.7%
- % lysis of tumor target [1, 8]: 16.0 ± 1.0%
- % lysis of tumor target [1, 9]: 11.0 ± 0.1%
- % lysis of tumor target [1, 10]: 12.7 ± 0.5%
- % lysis of tumor target [1, 11]: 18.3 ± 0.1%
- % lysis of tumor target [1, 12]: 14.9 ± 0.9%
- % lysis of tumor target [1, 13]: 22.2 ± 1.4%
- % of inhibition of target tumor growth ([2]; E/T 10:1, 100 mg/kg/day os): 25.0 ± 4.9%
- % of inhibition of target tumor growth ([2]; E/T 20:1, 25 mg/kg/day i.p.): 35.0 ± 1.6%
- % of inhibition of target tumor growth ([2]; E/T 20:1, 100 mg/kg/day os): 47.3 ± 0.6%
- % of inhibition of target tumor growth ([2]; E/T 40:1, 25 mg/kg/day i.p.): 55.7 ± 1.4%
- % of inhibition of target tumor growth ([2]; E/T 40:1, 100 mg/kg/day os): 62.8 ± 3.1%
- S.I. (stimulation index) (splenocytes; LPS): 1.13 and 0.95
- AUC (area under curve, incorporated radioactivity vs mytogen concentration) (splenocytes; PHA): 179 ± 3 ×10^-3 and 256 ± 21 ×10^-3 and 139 ± 5 ×10^-3
- S.I. (stimulation index) (splenocytes; PHA): 1.09 and 1.28 and 1.12
- MTD at 168 h ([3]; iv): > 20 mg/kg
- MTD at 168 h ([3]; po, os, fasting 18 hours): > 50 mg/kg

Source: patent publication US5962525A, “6,7-disubstituted-2-aminotetralines active as immunomodulators and pharmaceutical compositions containing same” (Sigma-Tau, priority 1990, dated 1999)
